Data as given in patent publication US8236937B2, “Methods and compositions for the detection and isolation of ligands” (InDanio Bioscience Inc., priority 2005, dated 2012).

Key:
[1] = tested on: fish glucocorticoid receptor (GR); conditions: agonist; cited from earlier work
[2] = biological target: T1, GAL4-DHR96 (Drosophila hormone receptor 96) fusion protein (Drosophila melanogaster, UniProt Q24143); assay: Ligand trap GFP reporter screen in transgenic Drosophila embryos (GAL4-DHR96, UAS-GFP); type: in vivo; conditions: 10^−5 molar vs control media, FIG. 7 panel A
T1 construct: expressed in transfected cells; host or cells: transgenic Drosophila embryos carrying GAL4-DHR96 and a UAS-GFP reporter
T1 sequence (Q24143 483-723 limits assumed): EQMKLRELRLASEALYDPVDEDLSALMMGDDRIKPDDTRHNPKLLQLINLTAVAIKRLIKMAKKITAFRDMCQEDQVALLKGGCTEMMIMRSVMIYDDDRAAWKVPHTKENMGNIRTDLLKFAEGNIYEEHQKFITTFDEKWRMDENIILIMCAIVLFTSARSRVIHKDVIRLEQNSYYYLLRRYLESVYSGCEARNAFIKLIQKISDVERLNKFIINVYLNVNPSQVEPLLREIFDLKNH
Excerpt: CITCO is a component of a small molecule library used to screen for novel DHR96 ligands.

GFP reporter activation / ligand activity at DHR96 [2] | Structure (SMILES) | Transcriptional activity of fish GR in the presence of ligand [1]
 | C[C@]12CCC(=O)C=C1CC[C@@H]1[C@@H]2[C@@H](O)C[C@@]2(C)[C@H]1CC[C@]2(O)C(=O)CO [cortisol] | able to induce transcriptional activity
first example of a DHR96-specific ligand | Clc1ccc(-c2nc3sccn3c2/C=N/OCc2ccc(Cl)c(Cl)c2)cc1 [CITCO] | 
